Measurements: patent US7557123B2, “Heterocyclic compound and medicinal use thereof” (Kyoto Pharmaceutical Industries, Ltd., priority 2001, dated 2009)
≈ marks a conversion by molar mass, not a printed value.

Experiments:
[1] = tested on: female Wistar rats; assay: Toxicity by repeat administration in Wistar rats; format: in vivo; conditions: 30 and 100 mg/kg/day orally for 2 consecutive weeks, vs control group; for ALT (GPT) / AST (GOT): serum; for weight of the heart / weight of the liver / weight of the white fat around the uterus: wet weight
Experimental: Using 6-week-old female Wistar rats, toxicity by repeat administration was examined.
The rats were grouped (6 rats per group) into a control group and test compound (compounds of Examples 2 and 20) administration groups (30 and 100 mg/kg/day), such that the mean and the standard deviation of the body weight of the rats were nearly the same. The test compound was suspended in 0.5% methylcellulose solution and administered orally for 2 consecutive weeks from the next day. The 0.5% methylcellulose solution was orally administered to the control group. The rats were fasted for 16 hr from the last day of administration, anesthetized by intraperitoneal administration of pentobarbital sodium (50 mg/kg) 24 hr after the final administration and the blood was drawn. Using EDTA-added blood, hematocrit value and erythrocyte count were measured, and using serum, AST (GOT) and ALT (GPT) were measured. In addition, the white fat around the uterus, and the liver and heart were removed and the wet weights thereof were measured.

[2] = Solubility of the compound in water (buffer pH 7.0); format: physicochemical; conditions: 25 mg in 1.0 ml buffer pH 7.0, shaken at 25° C. for 1 hr, filtrate by HPLC
Experimental: The pulverized test compound (compounds of Examples 2, 20, 22, 24, 27, 30, 40 or 65, 25 mg) was added to a buffer (1.0 ml, pH 7.0) and the mixture was shaken at 25° C. for 1 hr and passed through a membrane filter. The concentration of the test compound in the filtrate was measured by high performance liquid chromatography.

[3] = tested on: male KK-A^y mice; assay: Hypoglycemic and hypolipidemic activity in spontaneously diabetic KK-Ay mice; format: in vivo; conditions: 10 mg/kg/day orally for 4 consecutive days, plasma 24 hours after final administration, non-fasting, vs control group
Experimental: Blood was drawn under a non-fasting state from the tail vein of male KK-A^y mice, and the glucose and triglyceride levels of the plasma were measured using commercially available assay kits (glucose CII-test WAKO and triglyceride G-test WAKO, Wako Pure Chemical Industries, Ltd.). The mice were grouped (5 mice per group) into a control group and an administration group, such that the mean and standard deviation of the body weight and the plasma glucose and plasma triglyceride levels in each group were nearly the same. The test compounds (compounds of Examples 1, 2, 4, 8, 20, 22, 24, 27, 30, 33, 36, 37, 40, 45, 47, 52, 56, 58 and 64) were suspended in 5% gum arabic solution and administered (10 mg/kg/day) orally to the administration group for 4 consecutive days. The 5% gumarabic solution was orally administered to the control group. Blood was drawn under a non-fasting state from the tail vein 24 hours after the final administration and the glucose and triglyceride levels of the plasma were measured. The decrease in the plasma glucose and triglyceride levels was calculated from the following formula. Decrease (%)=[(mean of control group−mean of test compound administration group)/mean of control group]×100 Results

[4] = tested on: male db/db mice; assay: Hypoglycemic and hypolipidemic activity in db/db mice; format: in vivo; conditions: 3 mg/kg/day orally for 2 consecutive weeks, plasma 24 hours after final administration, non-fasting, vs control group
Experimental: Using db/db mice genetically showing high plasma glucose, hypertriglyceridemia, insulin resistance and obesity, the pharmacological activity of the test compounds of Examples 1, 2 and 20 was examined.
Blood was drawn under a non-fasting state from the tail vein of male db/db mice, the glucose level and triglyceride level of the plasma were measured using commercially available assay kits (glucose CII-test WAKO and triglyceride G-test WAKO, Wako Pure Chemical Industries, Ltd.). The mice were grouped (6 mice per group) into a control group and test compound (compounds of Examples 1, 2 and 20) administration group (3 mg/kg/day), such that the mean and standard deviation of the body weight and the plasma glucose and plasma triglyceride levels in each group were nearly the same. The test compound was suspended in 0.5% methylcellulose solution and administered orally for 2 consecutive weeks from the next day. The 0.5% methylcellulose solution was orally administered to the control group. Blood was drawn under a non-fasting state from the tail vein 24 hours after the final administration and the glucose and triglyceride levels of the plasma were measured. The decrease in the plasma glucose and triglyceride levels was calculated from the following formula. Decrease (%)=[(mean of control group−mean of test compound administration group)/mean of control group]×100 Results

[5] = tested on: male ICR mice; assay: Toxicity by repeat administration in ICR mice; format: in vivo; conditions: 30 and 100 mg/kg/day orally for 2 consecutive weeks, vs control group; for plasma volume: calculated from Evans blue concentration; for weight of the heart / weight of the liver: wet weight
Experimental: Using 7-week-old male ICR mice, toxicity by repeat administration was examined.
The mice were grouped (7 mice per group) into a control group and test compound (compounds of Examples 2 and 20) administration groups (30 and 100 mg/kg/day), such that the mean and the standard deviation of the body weight of the mice were nearly the same. The test compound was suspended in 0.5% methylcellulose solution and administered orally for 2 consecutive weeks from the next day. The 0.5% methylcellulose solution was orally administered to the control group. At 24 hours after the final administration, Evans blue (100 μg/mouse) was administered from the tail vein and, 5 min later, the blood was drawn from the orbital venous plexus with anesthesia. Using EDTA-added blood, hematocrit value and erythrocyte count were measured. Using the plasma, Evans blue concentration was measured, from which plasma volume was calculated. The liver and heart were removed and wet weight was measured.

Solubility [2] | Compound | ALT (GPT) [1] | AST (GOT) [1] | erythrocyte count [1] | hematocrit value [1] | weight of the heart [1] | weight of the liver [1] | weight of the white fat around the uterus [1] | Decrease (%) in glucose level [3] | Decrease (%) in triglyceride level [3] | Decrease (%) in glucose level [4] | Decrease (%) in triglyceride level [4] | plasma volume [5] | body weight [5] | erythrocyte count [5] | hematocrit value [5] | weight of the heart [5] | weight of the liver [5] | Solubility (mg/ml) [2]
10000 µg/mL (≈ 21.5 mM) | CC=CC=CC(=O)N1Cc2cc(OCCc3nc(/C=C/CCC)oc3C)ccc2C[C@H]1C(=O)O (stereo in doubt) [Example 2, 2-(2,4-hexadienoyl)-7-[2-(5-methyl-2-(trans-1-penten-1-yl)oxazol-4-yl)ethoxy]-1,2,3,4-tetrahydroisoquinoline-(3S)-carboxylic acid] | no significant difference | no significant difference | no significant difference | no significant difference | no significant difference | no significant difference | no significant difference | 40.3% | 40.5% | 57.2% | 78.1% | no significant difference | no significant difference | no significant difference | no significant difference | no significant difference | no significant difference | 
 | CC(C)(C)N.CC=CC=CC(=O)N1Cc2cc(OCCc3nc(/C=C/CC(C)C)oc3C)ccc2C[C@H]1C(=O)O (stereo in doubt) [Example 20, tert-butylamine 2-(2,4-hexadienoyl)-7-{2-[5-methyl-2-(4-methyl-trans-1-penten-1-yl)oxazol-4-yl]ethoxy}-1,2,3,4-tetrahydroisoquinoline-(3S)-carboxylate] | no significant difference | no significant difference | no significant difference | no significant difference | no significant difference | no significant difference | no significant difference | 57.7% | 65.6% | 54.0% | 72.0% | no significant difference | no significant difference | no significant difference | no significant difference | no significant difference | no significant difference | 25 or above mg/ml
